In patent US20240400549A1, “COMPOUNDS AND THEIR USES FOR TREATING NEURODEGENERATIVE DISEASE” (Academia Sinica, priority 2021, published 2024):

Key:
[1] = molecular target: T1, endogenous TDP-43 protein (FL-TDP-43) (Mus musculus, UniProt Q921F2); experiment: Level of endogenous TDP-43 protein (FL-TDP-43) in Neuro-2a cells; type: cell-based; details: mock control 0.91±0.07
T1 construct: the level of endogenous TDP-43 protein (FL-TDP-43); endogenous in cells; host or cells: Neuro-2a (mouse neuroblastoma), also transfected with eGFP-C-TDP-43
Description: Mouse neuroblastoma cell line (Neuro-2a) were cultured in Dulbecco's modified Eagle's medium (DMEM; Gibco) containing 2×10^−3 M glutamine, 10% heat inactivated fetal bovine serum (FBS), and 100 U mL^−1 penicillin-streptomycin (Gibco) at 37° C. in a humidified incubator containing 5% CO2. Alternatively, Neuro-2a cells were cultured in Dulbecco's modified Eagle's medium (DMEM; Invitrogen, Carlsbad, CA, USA) supplemented with 10% heat-inactivated FBS. The cells were incubated in a humidified incubator at 37° C. with 10% CO2. Transfection was performed using T-Pro NTR II (Ji-Feng Biotechnology, Taiwan) following the manufacturer's protocol.
Neuro-2a cells were seeded in a 6-well plate at a concentration of 2×10^5 cells/well and incubated overnight. Once the cells were attached, Neuro-2a cells were transfected with the eGFP-C-TDP-43 plasmid (2.2 μg) using Turbofect transfection reagent (Invitrogen) and treated with or without 5 μM test compound after 2 h transfection. After incubation for another 22 h, the transfected cells were harvested by RIPA buffer containing protease inhibitor (Roche) and sonicated on ice for 10 seconds. […] Aggregated eGFP-C-TDP-43 protein trapped by the CA membranes was determined by immunoblotting. […]
Proteins were separated using 12% Tris-glycine SDS-PAGE. […] The signals were visualized with luminescence (iBright™ FL1000 instrument, Invitrogen). […]

[2] = test system: C-TDP-43 expressed Neuro-2a cells; experiment: AlamarBlue cell viability in C-TDP-43 expressed Neuro-2a cells; type: cell-based, mouse; details: 5 μM; eGFP-C-TDP-43 overexpressing Neuro-2a cells; mock 0.43±0.04 vs blank control 1±0.03
Description: Neuro-2a cells were seeded in a 24-well plate at a concentration of 8×10^4 cells/well and incubated overnight. The attached Neuro-2a cells were then transfected with the eGFP-C-TDP-43 plasmid (1.1 μg) using TurboFect™ transfection reagent (Invitrogen) according to manufacturer's recommendations, and treated with or without 5 μM test compound after 2 h transfection. The cell viability indicator, AlamarBlue (Invitrogen), was added after 42 h of incubation, and the mixture was incubated for another 6 h. […] conditional medium was transferred to a 96-well plate, and cell viability was determined by the increased fluorescence intensity (λex=560 nm, λem=590 nm).
In this example, whether the compounds of formula (I) or (II) could relieve C-TDP-43-mediated cytotoxicity was examined.

YFP—C-TDP-43 aggregates = molecular target: T2, YFP—C-TDP-43 aggregates (Homo sapiens, UniProt Q13148); experiment: YFP-C-TDP-43 aggregates in transgenic C. elegans (confocal imaging); type: in vivo; details: 5 μM I-1b; compared to DMSO control or MG132-treated group
T2 construct: IW33 [Psnb-l:C-TDP-43219-414-YFP (iwIs22)]; expressed in transfected cells; host or cells: transgenic C. elegans strain IW33 (pan-neuronal snb-1 promoter)
Description: The YFP—C-TDP-43 transgenic strains of C. elegans generated in this study were IW33 [Psnb-l:C-TDP-43219-414-YFP (iwIs22)]. The strains of nematodes were maintained with standard procedure and grown at 20° C. as previously described (Zhang, T. et al. Hum. Mol. Genet. 2011, 20 (10), 1952). For all assays, the transgenic young two-day (80 hours) adults were used. For larvae synchronization, the eggs were isolated by lysing gravid adult worms with freshly prepared bleaching solution (0.5 mL 5 M NaOH with 1 mL bleach) and incubated in S buffer (recipe) for overnight. For drug treatments, compound I-1b and/or DMSO were solely or along with MG132 applied to fresh NGM plates prior to installing the synchronized C. elegans. The body bends of the corresponding treatment in a duration of 30 seconds of the various strains were documented through SMZ800N stereomicroscope equipped with a CCD camera (Nikon). A body bend was counted as the head of C. elegans travels across the mid-body in 1×PBS buffer. Then, the bending videos of C. elegans were analyzed by ImageJ with the wrMTrck plugin (Nussbaum-Krammer, C. I. et al. J. Vis. Exp. 2015, (95), 52321). […]
As YFP—C-TDP-43 readily forms cytosolic aggregates in nervous system, the YFP—C-TDP-43 aggregates both in the neuron processes and neuron bodies of the ventral cord were monitored. […]

[3] = molecular target: T3, eGFP-C-TDP-43 oligomeric intermediates (Homo sapiens, UniProt Q13148); experiment: Size-exclusion chromatography and slot blot with oligomer-specific antibody A11; type: cell-based, mouse; details: lysate of Neuro-2a cells overexpressing eGFP-C-TDP-43, 48 h
T3 construct: expressed in transfected cells; host or cells: Neuro-2a (mouse neuroblastoma)
T3 sequence (Q13148 208-414 limits assumed): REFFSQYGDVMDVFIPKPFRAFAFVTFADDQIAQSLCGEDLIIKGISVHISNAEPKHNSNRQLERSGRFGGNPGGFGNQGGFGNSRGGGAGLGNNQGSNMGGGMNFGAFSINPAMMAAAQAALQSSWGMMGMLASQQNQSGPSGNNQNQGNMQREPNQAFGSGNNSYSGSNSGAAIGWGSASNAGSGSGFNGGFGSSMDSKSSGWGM

T1 sequence (Q921F2 whole entry): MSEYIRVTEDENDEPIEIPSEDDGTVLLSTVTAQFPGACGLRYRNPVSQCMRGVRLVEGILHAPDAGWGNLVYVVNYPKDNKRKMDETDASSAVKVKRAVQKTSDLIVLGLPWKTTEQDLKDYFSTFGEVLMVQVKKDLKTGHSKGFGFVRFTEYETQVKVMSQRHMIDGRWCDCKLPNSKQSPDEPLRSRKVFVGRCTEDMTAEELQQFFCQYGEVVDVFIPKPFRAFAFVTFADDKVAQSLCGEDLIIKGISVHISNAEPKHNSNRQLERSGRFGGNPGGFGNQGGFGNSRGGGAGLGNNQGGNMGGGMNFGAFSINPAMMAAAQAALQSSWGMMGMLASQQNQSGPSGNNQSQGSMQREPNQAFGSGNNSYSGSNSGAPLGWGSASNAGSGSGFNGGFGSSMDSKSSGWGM
T2 sequence (Q13148 219-414 limits assumed): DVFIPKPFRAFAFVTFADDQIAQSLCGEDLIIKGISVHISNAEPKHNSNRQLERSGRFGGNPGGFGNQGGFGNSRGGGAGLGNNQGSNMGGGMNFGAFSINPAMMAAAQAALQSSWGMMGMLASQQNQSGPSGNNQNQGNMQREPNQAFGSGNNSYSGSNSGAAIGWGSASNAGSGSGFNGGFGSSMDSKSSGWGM

- level of endogenous TDP-43 protein (FL-TDP-43) [1]: 1.11±0.14
- A11 signal intensity in SEC fractions 9-11 (oligomeric intermediates) [3]: significantly reduced
Compound: CN(C)c1ccc(-c2nc3ccc(OCCOCCOCCNc4cccc5c4C(=O)N(C4CCC(=O)NC4=O)C5=O)cc3s2)cc1 (stereo not shown) [I-1b, 4-((2-(2-(2-((2-(4-(dimethylamino)phenyl)benzo[d]thiazol-6-yl)oxy)ethoxy)ethoxy)ethyl)amino)-2-(2,6-dioxopiperidin-3-yl)isoindoline-1,3-dione]
- cell viability [2]: 0.56±0.04
- YFP—C-TDP-43 aggregates in neuron processes and neuron bodies of the ventral cord (YFP—C-TDP-43 aggregates): fewer aggregates with reduced fluorescence intensity
